Series [1] deals with Blood platelet (ADP agglutination). In words: Blood platelet agglutination inhibiting activity (ADP-induced), washed rabbit platelet suspension. In kind it is cell-based, rabbit (Japanese white male rabbits). As to conditions: for pIC50: Oryctolagus cuniculus, Platelet, ADP 10 μM, concentration suppressing agglutination to 50%, read-out: Platelet agglutination inhibiting activity ED50, ADP agglutination; for Activity ratio, platelet agglutination inhibiting activity, ADP agglutination: relative to prostacyclin = 1. As for the experimental part: (§1) Blood platelet aggutination inhibiting activity
(§2) Japanese white male rabbits having a weight of from 2.0 to 2.5 kg were used.
(§3) Under anesthesia with sodium Pentobarbital, blood was sampled from the carotid artery, and mixed with a 1/7 volume of an anticoagulant citric acid dextrose solution. Then, the mixture was subjected to centrifugal separation at 140×g for 15 minutes, whereupon the supernatant (platelet rich plasma:PRP) was obtained. PRP was subjected to centrifugal separation at 1,300×g for 7 minutes. The blood platelet pellets thus obtained were washed with a HEPES buffer solution (pH 6.5) for washing blood platelets, and subjected to centrifugal separation at 1,300×g for 7 minutes. The blood platelet pellets washed twice under such condition, were suspended in a suspending liquid (a buffer solution for washing blood platelets, which contains 0.1% of human fibrinogen, 1.8 mM of CaCl2 and 1.2 mM of MgCl2) to obtain a blood platelet suspension having a concentration of from 5×10^8 to 8×10^8 platelets/ml.
(§4) The platelet agglutination ability was measured by means of an agglutination meter. To 380 μl of the platelet suspension, 10 μl of a test compound or a solvent as the control, was added. Three minutes later, 10 μl of a platelet agglutinating substance (10 μM of ADP or 1 μg/ml of collagen, as the final concentration) was added thereto to induce agglutination.
(§5) The blood platelet agglutination inhibiting activity of each test compound was represented by ED50 (i.e. the concentration of the test compound where the platelet agglutination is suppressed to 50%).

The subject of series [2] is diastolic blood pressure. In words: Hypotensive activity, anesthetized dog. In kind it is in vivo, crossbred adult dog. As to conditions: for Hypotensive activity, blood pressure decrease: at 10 μg/kg i.v.; for Activity ratio, hypotensive activity: relative to prostacyclin = 1. As for the experimental part:
A male or female crossbred adult dog having a weight of from 9 to 14 kg was anesthetized by intraveous administration of sodium Pentobarbital. Then, the left carotid was exposed under artificial respiration, and the blood pressure was measured by using an electric blood pressure meter. […]

The subject of the next series is Ethanol ulcer. The experiment in a line: Ethanol ulcer inhibiting activity. It is filed as in vivo, Male wister rats. Particulars: rat. The method, then:
Ethanol ulcer inhibiting activity
Male wister rats having a weight of from 170 to 270 g were put into individual cages and starved for 24 hours. During this starvation period, the rats were allowed to drink water freely. A test compound or PGE2 as a comparative compound was orally administered in an amount of 3, 10 or 30 μg/kg, and 30 minutes later, 1 ml of 99.5% ethanol was orally administered to each rat. One hour after the ethanol administration, each rat was filled by cervical vertebral luxation, and the stomach was taken out. A 1% formaline solution was injected into the stomach in an amount of about 8 ml, and the stomach was fixed in the formaline solution for 30 minutes. After the fixing, the stomach was severed along the greater curvature, and the mucous membrane surface of the stomach was gently washed with flowing water. Then, the total length of damages appearing on the gastric glandular portion was obtained and used as the ulcer index.
The ethanol ulcer inhibiting activity of a test compound was represented by ED50 (i.e. the dose of the test compound at which the ulcer was inhibited by 50% relative to the ulcer index of the non-treated group). To the non-treated group, the solvent was administered.

For another series, the system named is Hydrochloric acid ulcer. In words: Hydrochloric acid ulcer inhibiting activity. It is filed as in vivo, wister rats. Particulars: rat, oral administration of 30 μg/kg; for inhibition in vivo at 0.03 mg/kg: 0.6N hydrochloric acid, read-out: Hydrochloric acid ulcer inhibiting activity, Inhibiting rate. The method, then:
Hydrochloric acid ulcer inhibiting activity
Male wister […] having a weight of from 190 to 240 g were used. The rats were starved in the same manner as in Test Example 6, and the test compounds and PGE2 were, respectively, orally administered in an amount of 30 μg/kg, and 30 minutes later, 1 ml of 0.6N hydrochloric acid was orally administered. Thirty minutes after the hydrochloric acid administration, each rat was killed by cervical vertebral luxation. Then, the stomach was taken out and fixed, and the ulcer index was obtained, in the same manner as in Test Example 6. The hydrochloric acid ulcer inhibiting activity of a test compound was represented by the inhibiting percentage (i.e. the percentage of the ulcer index of the treated group to the ulcer index of the non-treated group). To the non-treated group, the solvent was administered.

Series [3] relates to diastolic blood pressure. Particulars: background statement; cited from earlier work.
The conditions of series [4]: background; cited from earlier work.
For series [5], the system named is Blood platelet (Collagen agglutination). The experiment in a line: Blood platelet agglutination inhibiting activity (collagen-induced), washed rabbit platelet suspension. In kind it is cell-based, rabbit (Japanese white male rabbits). Particulars: for pIC50: Oryctolagus cuniculus, Platelet, collagen 1 μg/ml, concentration suppressing agglutination to 50%, read-out: Platelet agglutination inhibiting activity ED50, Collagen agglutination; for Activity ratio, platelet agglutination inhibiting activity, Collagen agglutination: relative to prostacyclin = 1. The method, then:
as §1, §2, §3, §4, §5

The test system of the next series is coronary artery. The experiment in a line: Blood flow-increasing activity in the coronary artery, anesthetized dog. It is filed as in vivo, crossbred adult dog. Particulars: for ED50: Canis lupus familiaris, dog, near arterial injection, reactive hyperemia = 100%; for Activity ratio, blood flow-increasing activity in coronary artery: relative to prostacyclin = 1. The method, then:
Blood flow-increasing activity in the coronary artery
A crossbred adult dog having a weight of from 9 to 15 kg was anesthetized with sodium Pentobarbital and subjected to thoractomy under artificial respiration. After pericardiectomy, the frontal descending branch of the left coronary artery was separated from the surrounding tissues, and a blood flow-measuring probe was attached thereto under sodium heparin treatment. The coronary blood flow was measured by using an electromagnetic flow meter. The test compound was injected into the coronary artery by near arterial injection, and the blood flow-increasing activity in the coronay artery was represented by ED50 (i.e. the dose of a test compound at which the blood flow increases by 50%, as evaluated on the basis that the blood flow increase by the reactive hyperemia caused by releasing the blood flow of the coronary artery after blocking it for 15 seconds, is evaluated to be 100%).

The subject of another series is vertebral artery. In words: Blood flow-increasing activity in the vertebral artery, anesthetized dog. It is filed as in vivo, crossbred adult dog. The source says: Blood flow-increasing activity in the vertebral artery
A made or female crossbred adult dog having a weight of from 8 to 13 kg was anesthetized by intravenous administration of sodium Pentobarbital and subjected to thoractomy along the mediam line under artificial respiration to expose the left vertebral artery. Under sodium peparin treatment, a polyethylene cannula was inserted into the vertebral artery, and a blood flow-measuring probe was attached to its other end, to which a blood circulation tube led from the left femoral artery was connected, whereby the blood flow in the vertebral artery was measured by using an electromagnetic flow meter. The test compound was injected into the vertebral artery by near arterial injection, and the blood flow-increasingactivity in the vertebral artery was represented by ED50 (i.e. the dose of a test compound at which the blood flow increases by 50%, as evaluated on the basis that the blood flow increase (representing substantially the maximum reaction) by the administration of 100 μg/kg papaverine hydrochloride into the vertebral artery, is evaluated to be 100%).

The test system of a further series is femoral artery. The experiment in a line: Blood flow-increasing activity in the femoral artery, anesthetized dog. As to conditions: for ED50: Canis lupus familiaris, dog, near arterial injection, papaverine hydrochloride 100 μg/kg = 100%; for Activity ratio, blood flow-increasing activity in femoral artery: relative to prostacyclin = 1. It is filed as in vivo, crossbred adult dog. The method, then:
Blood flow-increasing activity in the femoral artery
A male or female crossbred adult dog having a weight of from 8 to 13 kg, was anesthetized by intravenous administration of sodium Pentobarbital. Then, a tracheal cannula was inserted, and artificial respiration was conducted. The blood flow in the femoral artery was measured by inserting the annula into the left femoral artery under sodium heparin treatment and providing a blood flow measuring probe at it other end, and by using an electromagnetic flow meter. The test compound was injected into the femoral artery by near arterial injection, and the blood flow-increasing activity in the femoral artery was represented by ED50 (i.e. the dose of a test compound at which the blood flow increases by 50%, as evaluated on the bais that the blood flow increase (representing substantially the maximum reaction) by the administration of 100 μg/kg of papaveline hydrochloride into the femoral artery, is evaluted to be 100%).

The next series relates to Indomethacine ulcer. The experiment in a line: Indomethacine ulcer inhibiting activity. It is filed as in vivo, Male wister rats. As to conditions: rat; oral administration of 60 μg/kg twice. The source says: Indomethacine ulcer inhibiting activity
Male wister rats having a weight of from 210 to 270 g were used. The rats were starved in the same manner as in Test Example 6. […] Three hours after the indomethacine administration, the test compound or PGE2 was again orally administered in the same amount. Six hours after the first administration of indomethacine, each rat was killed by cervical bertebral luxation. The stomach was taken out and fixed, and the ulcer index was obtained, in the same manner as in Test Example 6.
The indomethacine ulcer inhibiting activity of a test compound was represented by the inhibiting percentage (i.e. the inhibiting percentage of the ulcer index of the treated group to the ulcer index of the non-treated group). To the non-treated group, the solvent was administered.

The test system of the next series is ulcer. The experiment in a line: Anti-ulcer activity (general statement). Particulars: compared with typical PG such as PGE2. It is filed as in vivo, animals. The source says:
On the basis of this discovery, a further research has been made for the application to the prevention and treatment of digestive organ ulcers, and have accomplished the present invention.

For series [6], the system named is blood flow of various organs. The experiment in a line: Blood flow increasing activity in various organs (general statement). Particulars: in vivo.
Setting [7] is: oral administration of 30 μg/kg.

The structures appear in SMILES notation. pIC50: −log10 of the molar value. “And” between values parts separate entries of the source, which are not always exact repeats. Equal entries are not always repeated.

For the molecule `CCCCC[C@H](O)/C=C/[C@@H]1[C@H]2C/C(=C/CCCC(=O)O)O[C@H]2C[C@H]1O` [Prostacyclin, (5Z,13E)-(9α,11α,15S)-6,9-epoxy-11,15-dihydroxyprosta-5,13-diene acid], the pIC50 in [1] is 8.54. For the same molecule, in the series with diastolic blood pressure [2] (Canis lupus familiaris, iv, read-out: Hypotensive activity ED50 (dose reducing diastolic blood pressure by 50 mmHg), heading: Hypotensive activity ED50, dog, femoral vein, Table 1), the ED (50 mmHg) stood at 0.24 µg/kg. Also, in the series on Ethanol ulcer (setting [7]), the “Ethanol ulcer inhibition (in words)” value is listed as “No inhibiting activity”. Moreover, the “Hydrochloric acid ulcer inhibition (in words)” value in the series with Hydrochloric acid ulcer is reported as “No inhibiting activity”. Also, the “Hypotensive activity of prostacyclin (in words)” value in the series with diastolic blood pressure [3] is on record as “remarkable hypotensive activities”. For the same molecule, in series [4], the “Chemical stability (in words)” value is “very unstable”.
Usually ED50 stands for the midpoint of the dose-response relation. Read a high ED50 as weaker potency. For the molecule `CCC#CCC(C)[C@H](O)/C=C/[C@@H]1[C@H]2CCC(CCCC(=O)O)=C[C@H]2C[C@H]1O` (stereo partly drawn) [(b), 3-(3-carboxypropyl)-7-exo-(3α-hydroxy-4,8-dimethyl-trans-1-octen-6-ynyl)-8-endo-hydroxy-cis-bicyclo[4,3,0]nona-2-ene], the pIC50 was 7.11 in [1] and 7.36 in series [5]. Besides, the “Activity ratio, platelet agglutination inhibiting activity, ADP agglutination” value in series [1] is recorded as 1/27. Besides, the “Activity ratio, platelet agglutination inhibiting activity, Collagen agglutination” value in series [5] is reported as 1/12. In addition, the ED50 worked out at 1.2 µg/kg in the series with coronary artery; 0.75 µg/kg in the series on vertebral artery (Canis lupus familiaris, dog, near arterial injection, papaverine hydrochloride 100 μg/kg = 100%); 0.35 µg/kg in the series on femoral artery; 2.79 µg/kg in the series with Ethanol ulcer (po, P.O., 30 minutes before 99.5% ethanol). The “Activity ratio, blood flow-increasing activity in coronary artery” value with coronary artery is on record as 1/120. In the series on vertebral artery (relative to prostacyclin = 1), the “Activity ratio, blood flow-increasing activity in vertebral artery” value is 1/17. In addition, in the series on femoral artery, the “Activity ratio, blood flow-increasing activity in femoral artery” value is recorded as 1/15. The “Hypotensive activity, blood pressure decrease” value in the series on diastolic blood pressure [2] (dog) amounted to 27.9 mmHg. Further, in the series with diastolic blood pressure [2], the “Activity ratio, hypotensive activity” value is recorded as “about 1/135”. Further, the inhibition in vivo at 0.03 mg/kg with Hydrochloric acid ulcer is 54.8%. The “Indomethacine ulcer inhibiting activity, Inhibiting rate” value in the series with Indomethacine ulcer turned out to be 99.4%. In addition, in the series on ulcer, the “Anti-ulcer activity (in words)” value is given as “comparable or superior to typical PG having anti-ulcer activities, such as PGE2”. Besides, the “Activity to increase the blood flow (in words)” value in series [6] was “activity to increase the blood flow of the vertebral artery, coronary artery and femoral artery”.
As for `CCCCC[C@H](O)/C=C/[C@@H]1[C@H]2CCC(C=CCCC(=O)O)=C[C@H]2C[C@H]1O` [(c), 3-(4-carboxy-1-butenyl)-7-exo-(3α-hydroxy-trans-1-octenyl)-8-endo-hydroxy-cis-bicyclo[4,3,0]nona-2-ene], in [1], the pIC50 was 7.30 and the “Activity ratio, platelet agglutination inhibiting activity, ADP agglutination” value was 1/17. For the same molecule, in series [5], the pIC50 is 7.14 and the “Activity ratio, platelet agglutination inhibiting activity, Collagen agglutination” value was 1/21. Moreover, in the series on coronary artery, the 50% effect level (ED50) was put at a dose of 2.1 µg/kg and the “Activity ratio, blood flow-increasing activity in coronary artery” value is 1/210. Besides, the “Blood flow increase in vertebral artery” value in the series on vertebral artery (dog, at 3 μg/kg, near arterial injection) was determined as 36.9%. Also, in the series on femoral artery, the ED50 is 0.56 µg/kg and the “Activity ratio, blood flow-increasing activity in femoral artery” value is on record as 1/23. The “Hypotensive activity, blood pressure decrease” value with diastolic blood pressure [2] (dog) amounted to 27.9 mmHg. Also, the “Activity ratio, hypotensive activity” value with diastolic blood pressure [2] is “about 1/125 and 1/125”. The Ethanol ulcer inhibition in the series with Ethanol ulcer (setting [7]) is listed as 31.7%. Besides, in the series on Hydrochloric acid ulcer, the inhibition in vivo at 0.03 mg/kg was 13.5%. Moreover, the “Indomethacine ulcer inhibition (in words)” value in the series on Indomethacine ulcer was “Certain inhibition”. In series [6], the “Activity to increase the blood flow (in words)” value is “activity to increase the blood flow of various organs to a proper extent”.

(Values after patent US4837342A, “Prostacyclin analogue, and blood circulation improving agent and anti-ulcer composition containing it as active ingredient” (Sagami Chemical Research Center, priority 1986, dated 1989).)
